{
  "source": "ChEMBL document CHEMBL3232957",
  "about": "“Some non-conventional biomolecular targets for diamidines. A short survey” (Bioorg Med Chem, 2014)",
  "key": {"Mus musculus [1]": {"tested_on": "Mus musculus", "experiment": "Neuroprotective activity in Swiss mouse focal cerebral injury model assessed as reduction of ibotenate-induced lesion size in white matter at 4 ug/kg", "format": "functional", "set-up": "scale not given: the % may be the effect or the level left"}, "Mus musculus [2]": {"tested_on": "Mus musculus", "experiment": "Neuroprotective activity in Swiss mouse focal cerebral injury model assessed as reduction of ibotenate-induced lesion size in gray matter at 4 ug/kg", "format": "functional", "set-up": "scale not given: the % may be the effect or the level left"}, "[3]": {"experiment": "Antiproliferative activity against human C8146A cells assessed as growth inhibition", "format": "functional, cell-based"}, "[4]": {"target": "Glutamate [NMDA] receptor", "experiment": "Antagonist activity at NMDA receptor (unknown origin)", "set-up": "species or system Homo sapiens"}, "[5]": {"experiment": "Binding affinity to r(CUG)6 (unknown origin) assessed as inhibition of RNA-MBNL1 interaction by quantitative TR-FRET assay"}, "Homo sapiens [6]": {"species_on_record": "Homo sapiens", "experiment": "Inhibition of human KIR2.X channel assessed as remaining outward current at 0.2 uM; values are per cent of control"}, "Homo sapiens [7]": {"species_on_record": "Homo sapiens", "experiment": "Inhibition of human KIR2.X channel assessed as remaining inward current at 0.2 uM; values are per cent of control"}, "[8]": {"experiment": "Inhibition of mouse hippocampal neurons ASIC transfected in CHO cells assessed as inhibition of acid-evoked current at -60 mV holding potential by two-electrode voltage-clamp electrophysiology assay", "format": "cell-based"}, "[9]": {"target": "Glutamate NMDA receptor; GRIN1/GRIN2A (Homo sapiens, UniProt Q05586+Q12879)", "sequence (Q12879 whole entry, other chains not shown)": "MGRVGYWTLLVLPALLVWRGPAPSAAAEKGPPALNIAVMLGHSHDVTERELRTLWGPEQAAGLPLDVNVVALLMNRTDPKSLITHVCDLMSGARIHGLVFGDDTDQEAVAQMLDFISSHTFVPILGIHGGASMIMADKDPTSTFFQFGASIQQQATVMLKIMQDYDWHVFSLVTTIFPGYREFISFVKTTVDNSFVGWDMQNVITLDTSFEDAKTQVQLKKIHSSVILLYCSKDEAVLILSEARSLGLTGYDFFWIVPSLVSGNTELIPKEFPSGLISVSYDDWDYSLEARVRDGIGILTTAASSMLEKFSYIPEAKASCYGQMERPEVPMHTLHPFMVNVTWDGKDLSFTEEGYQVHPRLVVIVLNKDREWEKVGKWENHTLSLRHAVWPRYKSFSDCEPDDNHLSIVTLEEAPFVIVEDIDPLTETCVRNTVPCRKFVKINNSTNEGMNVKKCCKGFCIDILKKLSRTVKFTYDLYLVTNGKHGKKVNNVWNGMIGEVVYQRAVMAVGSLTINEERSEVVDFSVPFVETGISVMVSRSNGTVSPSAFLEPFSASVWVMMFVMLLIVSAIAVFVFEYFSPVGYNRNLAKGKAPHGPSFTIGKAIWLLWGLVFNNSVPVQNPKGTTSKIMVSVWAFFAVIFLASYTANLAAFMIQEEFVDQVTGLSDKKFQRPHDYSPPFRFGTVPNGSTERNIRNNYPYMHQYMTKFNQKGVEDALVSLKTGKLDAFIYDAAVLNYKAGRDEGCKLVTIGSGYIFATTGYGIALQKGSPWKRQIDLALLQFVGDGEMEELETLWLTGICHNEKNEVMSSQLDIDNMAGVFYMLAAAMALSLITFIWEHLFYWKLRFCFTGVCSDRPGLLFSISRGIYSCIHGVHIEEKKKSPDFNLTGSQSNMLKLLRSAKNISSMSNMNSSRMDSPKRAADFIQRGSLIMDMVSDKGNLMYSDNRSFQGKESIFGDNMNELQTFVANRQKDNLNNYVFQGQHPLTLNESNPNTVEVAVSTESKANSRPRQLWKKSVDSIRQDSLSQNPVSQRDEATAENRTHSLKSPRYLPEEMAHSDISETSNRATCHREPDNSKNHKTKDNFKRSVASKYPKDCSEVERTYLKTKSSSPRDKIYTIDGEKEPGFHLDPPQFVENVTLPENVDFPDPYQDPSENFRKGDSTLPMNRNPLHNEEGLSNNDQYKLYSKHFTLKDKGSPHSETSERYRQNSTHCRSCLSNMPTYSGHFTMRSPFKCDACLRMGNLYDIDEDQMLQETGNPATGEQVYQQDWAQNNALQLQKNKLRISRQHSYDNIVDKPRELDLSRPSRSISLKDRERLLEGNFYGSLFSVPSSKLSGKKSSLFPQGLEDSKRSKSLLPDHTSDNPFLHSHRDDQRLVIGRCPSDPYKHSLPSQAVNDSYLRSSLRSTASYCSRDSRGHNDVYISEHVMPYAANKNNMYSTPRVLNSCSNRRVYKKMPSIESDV", "experiment": "Antagonist activity at NR1/NR2A receptor (unknown origin) expressed in Xenopus laevis oocytes assessed as inhibition of glutamate/glycine-induced current at pH 7.6 at -40mV holding potential by two-electrode voltage-clamp electrophysiology", "format": "cell-based"}, "[10]": {"target": "Diamine acetyltransferase 1 (Homo sapiens, UniProt P21673)", "sequence (P21673 whole entry)": "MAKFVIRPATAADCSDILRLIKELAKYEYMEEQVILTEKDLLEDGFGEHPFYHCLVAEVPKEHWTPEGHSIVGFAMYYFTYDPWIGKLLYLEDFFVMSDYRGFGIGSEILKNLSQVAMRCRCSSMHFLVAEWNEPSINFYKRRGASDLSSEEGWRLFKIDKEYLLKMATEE", "experiment": "Inhibition of human SSAT using spermidine as substrate"}, "[11]": {"experiment": "Inhibition of mouse polyamine oxidase assessed as conversion of N-acetylspermine to […]"}, "[12]": {"target": "T1, Diamine oxidase [copper-containing] (Homo sapiens, UniProt P19801)", "T1 sequence (P19801 whole entry)": "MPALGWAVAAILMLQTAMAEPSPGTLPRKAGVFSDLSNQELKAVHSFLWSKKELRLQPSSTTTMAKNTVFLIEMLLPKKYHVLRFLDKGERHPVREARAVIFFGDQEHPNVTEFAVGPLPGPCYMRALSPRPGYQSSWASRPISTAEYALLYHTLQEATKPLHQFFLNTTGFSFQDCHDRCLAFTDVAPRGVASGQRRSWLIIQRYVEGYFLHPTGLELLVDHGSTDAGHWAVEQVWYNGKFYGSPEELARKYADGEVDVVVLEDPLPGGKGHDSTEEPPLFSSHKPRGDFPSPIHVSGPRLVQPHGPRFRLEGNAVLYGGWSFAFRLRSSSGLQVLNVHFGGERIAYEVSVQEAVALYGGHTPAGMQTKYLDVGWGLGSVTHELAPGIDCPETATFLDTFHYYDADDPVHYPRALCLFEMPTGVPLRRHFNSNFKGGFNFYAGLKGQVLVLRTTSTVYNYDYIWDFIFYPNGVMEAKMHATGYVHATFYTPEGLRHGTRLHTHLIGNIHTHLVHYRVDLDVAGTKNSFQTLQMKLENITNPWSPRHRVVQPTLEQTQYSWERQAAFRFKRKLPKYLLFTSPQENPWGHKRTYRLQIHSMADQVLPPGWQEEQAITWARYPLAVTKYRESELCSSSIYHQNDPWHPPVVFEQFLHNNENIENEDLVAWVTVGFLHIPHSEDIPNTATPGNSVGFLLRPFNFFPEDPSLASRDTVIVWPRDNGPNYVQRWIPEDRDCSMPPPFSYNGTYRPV", "experiment": "Mixed type inhibition of recombinant human DAO expressed in drosophila S2 cells", "format": "cell-based"}, "[13]": {"target": "T2, Acid-sensing ion channel 3 (Mus musculus) (UniProt Q6X1Y6)", "T2 sequence (whole entry)": "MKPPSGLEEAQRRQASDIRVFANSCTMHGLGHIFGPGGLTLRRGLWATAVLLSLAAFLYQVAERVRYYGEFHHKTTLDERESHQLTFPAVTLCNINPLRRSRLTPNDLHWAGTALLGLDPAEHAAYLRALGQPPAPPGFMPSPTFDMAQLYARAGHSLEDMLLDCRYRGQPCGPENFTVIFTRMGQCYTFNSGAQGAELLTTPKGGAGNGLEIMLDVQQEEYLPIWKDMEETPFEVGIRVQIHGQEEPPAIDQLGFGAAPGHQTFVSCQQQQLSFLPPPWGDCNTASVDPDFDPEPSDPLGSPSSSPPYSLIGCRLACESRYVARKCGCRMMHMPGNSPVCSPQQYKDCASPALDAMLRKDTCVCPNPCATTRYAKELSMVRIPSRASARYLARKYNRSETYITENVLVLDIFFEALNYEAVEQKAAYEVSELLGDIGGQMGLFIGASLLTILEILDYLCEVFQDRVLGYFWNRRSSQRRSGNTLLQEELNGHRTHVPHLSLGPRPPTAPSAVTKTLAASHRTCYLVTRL", "experiment": "Inhibition of mouse hippocampal neurons ASIC3 transfected in CHO cells assessed as reduction of acid-evoked current at 3 uM at -60 mV holding potential by two-electrode voltage-clamp electrophysiology assay", "format": "cell-based"}, "[14]": {"target": "T3, Acid-sensing ion channel 2 (Mus musculus) (UniProt Q925H0)", "T3 sequence (whole entry)": "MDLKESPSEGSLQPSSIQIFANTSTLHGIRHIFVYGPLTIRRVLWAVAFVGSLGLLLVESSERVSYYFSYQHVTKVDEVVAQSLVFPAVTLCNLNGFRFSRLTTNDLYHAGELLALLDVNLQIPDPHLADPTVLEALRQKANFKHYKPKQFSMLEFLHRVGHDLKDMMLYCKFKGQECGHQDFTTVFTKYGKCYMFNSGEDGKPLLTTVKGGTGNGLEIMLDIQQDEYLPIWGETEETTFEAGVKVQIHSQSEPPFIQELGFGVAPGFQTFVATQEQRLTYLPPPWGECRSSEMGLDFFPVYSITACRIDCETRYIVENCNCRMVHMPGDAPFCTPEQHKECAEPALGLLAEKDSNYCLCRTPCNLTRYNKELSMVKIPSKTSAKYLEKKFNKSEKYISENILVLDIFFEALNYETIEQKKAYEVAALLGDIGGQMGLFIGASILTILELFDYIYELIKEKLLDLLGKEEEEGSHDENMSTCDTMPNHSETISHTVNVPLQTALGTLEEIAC", "experiment": "Inhibition of mouse hippocampal neurons ASIC2a transfected in CHO cells assessed as reduction of acid-evoked current at 3 uM at -60 mV holding potential by two-electrode voltage-clamp electrophysiology assay", "format": "cell-based"}, "[15]": {"target": "T4, Acid-sensing ion channel 1 (Mus musculus) (UniProt Q6NXK8)", "T4 sequence (whole entry)": "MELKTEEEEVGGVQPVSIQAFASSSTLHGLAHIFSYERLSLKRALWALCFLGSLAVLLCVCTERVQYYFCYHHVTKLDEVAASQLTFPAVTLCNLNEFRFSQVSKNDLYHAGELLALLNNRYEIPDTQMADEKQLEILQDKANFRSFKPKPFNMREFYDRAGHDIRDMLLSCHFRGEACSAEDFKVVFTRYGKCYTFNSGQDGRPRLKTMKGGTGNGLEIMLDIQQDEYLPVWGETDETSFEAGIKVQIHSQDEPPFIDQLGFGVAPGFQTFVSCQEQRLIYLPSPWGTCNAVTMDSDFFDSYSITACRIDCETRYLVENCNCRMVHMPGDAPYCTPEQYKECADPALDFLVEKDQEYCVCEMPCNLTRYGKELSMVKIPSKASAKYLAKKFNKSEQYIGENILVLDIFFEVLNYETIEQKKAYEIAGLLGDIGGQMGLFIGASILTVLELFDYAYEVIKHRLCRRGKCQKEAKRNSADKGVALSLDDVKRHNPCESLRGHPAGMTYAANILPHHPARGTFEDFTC", "experiment": "Inhibition of mouse hippocampal neurons ASIC1b transfected in CHO cells assessed as reduction of acid-evoked current at 3 uM at -60 mV holding potential by two-electrode voltage-clamp electrophysiology assay", "format": "cell-based"}, "[16]": {"target": "T4, Acid-sensing ion channel 1 (Mus musculus)", "experiment": "Inhibition of mouse hippocampal neurons ASIC1a transfected in CHO cells assessed as reduction of acid-evoked current at 3 uM at -60 mV holding potential by two-electrode voltage-clamp electrophysiology assay", "format": "cell-based"}},
  "data": [
    {"smiles": "N=C(N)c1ccc(NCCNc2ccc(C(=N)N)cc2)cc1", "values": [
      {"measurement": "Activity", "setting": "Mus musculus [1]", "value": 69, "unit": "%"},
      {"measurement": "Activity", "setting": "Mus musculus [2]", "value": 49, "unit": "%"}
    ]},
    {"smiles": "N=C(N)NC(=N)Nc1cccc(Cl)c1Cl", "values": [
      {"measurement": "IC50", "setting": "[3]", "value": 8, "unit": "µM"}
    ]},
    {"smiles": "Cc1cc(C)c(N2C(=O)c3ccc(C(=O)Nc4cc(C(=O)O)cc(C(=O)O)c4)cc3C2=O)c(C)c1", "values": [
      {"measurement": "IC50", "setting": "[3]", "value": 44, "unit": "µM"}
    ]},
    {"smiles": "N=C(N)c1ccc(N2CCCN(c3ccc(C(=N)N)cc3)CC2)cc1", "values": [
      {"measurement": "IC50", "setting": "[4]", "value": 1.19, "unit": "µM"}
    ]},
    {"smiles": "N=C(N)c1ccc(NC(=O)c2ccc(C(=O)Nc3ccc(C(=N)N)cc3)c(N)c2)cc1", "values": [
      {"measurement": "IC50", "setting": "[5]", "value": 10, "unit": "µM"}
    ]},
    {"smiles": "N=C(N)c1ccc(OCCOc2cccc(N)c2)cc1", "values": [
      {"measurement": "IC50", "setting": "[5]", "value": 250, "unit": "µM"}
    ]},
    {"smiles": "N=C(N)NC(=N)Nc1ccc(Cl)cc1C(=O)c1ccccc1", "values": [
      {"measurement": "IC50", "setting": "[3]", "value": 12, "unit": "µM"}
    ]},
    {"smiles": "CC(C)(C)NC(=O)c1cccc(N2C(=O)c3ccc(C(=O)O)cc3C2=O)c1", "values": [
      {"measurement": "IC50", "setting": "[3]", "value": "> 100", "unit": "µM"}
    ]},
    {"smiles": "Cc1c(NS(=O)(=O)c2ccc(NC(=O)CCC(=O)O)cc2)c(=O)n(-c2ccccc2)n1C", "values": [
      {"measurement": "IC50", "setting": "[3]", "value": "> 100", "unit": "µM"}
    ]},
    {"smiles": "N=C(Nc1ccc(OCCCCCOc2ccc(NC(=N)c3ccccc3)cc2)cc1)c1ccccc1", "values": [
      {"measurement": "residual activity", "setting": "Homo sapiens [6]", "value": 12.1, "unit": "%"},
      {"measurement": "residual activity", "setting": "Homo sapiens [7]", "value": 86.6, "unit": "%"}
    ]},
    {"smiles": "N=C(N)c1ccc(-c2cc3ccc(C(=N)N)cc3[nH]2)cc1", "note": "[DAPI]", "values": [
      {"measurement": "IC50", "setting": "[8]", "value": 2.8, "unit": "µM"}
    ]},
    {"smiles": "CN1CC[C@@]23CCCC[C@@H]2[C@@H]1Cc1ccc(O)cc13", "note": "[DEXTRORPHAN]", "values": [
      {"measurement": "IC50", "setting": "[9]", "value": 1.3, "unit": "µM"}
    ]},
    {"smiles": "N=C(N)c1ccc(/N=N/Nc2ccc(C(=N)N)cc2)cc1", "note": "[DIMINAZENE]", "values": [
      {"measurement": "Ki", "setting": "[10]", "value": 2.4, "unit": "µM"},
      {"measurement": "Ki", "setting": "[11]", "value": 120, "unit": "µM"},
      {"measurement": "IC50", "setting": "[8]", "value": 0.3, "unit": "µM"},
      {"measurement": "Ki", "setting": "[12]", "value": 0.013, "unit": "µM"}
    ]},
    {"smiles": "N=C(N)c1ccc(/C=C/c2ccc(C(=N)N)cc2O)cc1", "note": "[HYDROXYSTILBAMIDINE]", "values": [
      {"measurement": "IC50", "setting": "[8]", "value": 1.5, "unit": "µM"}
    ]},
    {"smiles": "CNC1(c2ccccc2Cl)CCCCC1=O", "note": "(stereo not drawn) [KETAMINE]", "values": [
      {"measurement": "IC50", "setting": "[9]", "value": 3.31, "unit": "µM"}
    ]},
    {"smiles": "N=C(N)c1ccc(OCCCCCOc2ccc(C(=N)N)cc2)cc1", "note": "[PENTAMIDINE]", "values": [
      {"measurement": "IC50", "setting": "[5]", "value": "> 1000", "unit": "µM"},
      {"measurement": "inhibition", "setting": "[13]", "value": 74, "unit": "%"},
      {"measurement": "IC50", "setting": "[3]", "value": 1.2, "unit": "µM"},
      {"measurement": "Ki", "setting": "[10]", "value": 2, "unit": "µM"},
      {"measurement": "residual activity", "setting": "Homo sapiens [6]", "value": 10.8, "unit": "%"},
      {"measurement": "Ki", "setting": "[11]", "value": 7.6, "unit": "µM"},
      {"measurement": "inhibition", "setting": "[14]", "value": 51, "unit": "%"},
      {"measurement": "inhibition", "setting": "[15]", "value": 92, "unit": "%"},
      {"measurement": "inhibition", "setting": "[16]", "value": 39, "unit": "%"},
      {"measurement": "IC50", "setting": "[8]", "value": 38, "unit": "µM"},
      {"measurement": "residual activity", "setting": "Homo sapiens [7]", "value": 48.2, "unit": "%"},
      {"measurement": "Ki", "setting": "[12]", "value": 0.29, "unit": "µM"},
      {"measurement": "IC50", "setting": "[9]", "value": 0.72, "unit": "µM"}
    ]}
  ]
}
